According to ChEMBL document CHEMBL1130465, “Peptidic prodrugs of novel aminomethyl-THF 1-methylcarbapenems” (1997):
In brackets after ≈: the same amount, converted by molar mass.

Legend:
Type in all cases: functional
[1] = test system: Acinetobacter calcoaceticus; assay: In vitro antimicrobial activity against Acinetobacter calcoaceticus GC 756 strain; conditions: Acinetobacter calcoaceticus; read-out: MIC
Citrobacter freundii = assay: In vitro antimicrobial activity against Citrobacter freundii GC 2211 strain; conditions: Citrobacter freundii; read-out: MIC
Enterococcus faecium = assay: In vitro antimicrobial activity against Enterococcus faecium GC 1182 strain
Enterococcus faecalis = assay: In vitro antimicrobial activity against Enterococcus faecalis GC 842 strain
Escherichia coli [2] = assay: In vitro antimicrobial activity against Escherichia coli ATCC 25922 strain
Escherichia coli [3] = assay: In vitro antimicrobial activity against Escherichia coli GC 1792 strain; conditions: Escherichia coli; read-out: MIC
Escherichia coli [4] = assay: In vitro antimicrobial activity against Escherichia coli GC 2205 strain
Enterobacter cloacae = assay: In vitro antimicrobial activity against Enterobacter cloacae GC 2209 strain
Mus musculus [5] = organism: Mus musculus; assay: animal or person; conditions: Mus musculus, po; read-out: ED50
Description: Tested for oral activity against Escherichia coli #311 infection in mice after single oral dose(SOD)

Mus musculus [6] = organism: Mus musculus; assay: animal or person; conditions: Mus musculus; read-out: ED50
Description: Tested for oral activity against Escherichia coli #311 infection in mice after single subcutaneous dose(SSC)

Mus musculus [7] = assay: Tested for oral activity against Staphylococcus aureus smith infection in mice after single oral dose(SOD); conditions: Mus musculus, po; read-out: ED50
Morganella morganii = assay: In vitro antimicrobial activity against Morganella morganii GC 2213 strain; conditions: Morganella morganii; read-out: MIC
Pseudomonas aeruginosa [8] = assay: In vitro antimicrobial activity against Pseudomonas aeruginosa ATCC 27853 strain; conditions: Pseudomonas aeruginosa, ATCC 27853; read-out: MIC
Pseudomonas aeruginosa [9] = assay: In vitro antimicrobial activity against Pseudomonas aeruginosa GC 1544 strain; conditions: Pseudomonas aeruginosa; read-out: MIC
Staphylococcus aureus [10] = assay: In vitro antimicrobial activity against Staphylococcus aureus GC 2220 strain; conditions: Staphylococcus aureus; read-out: MIC
Staphylococcus aureus [11] = assay: In vitro antimicrobial activity against Staphylococcus aureus ATCC 29213 strain
[12] = test system: Stenotrophomonas maltophilia; assay: In vitro antimicrobial activity against Xanthomonas maltophilia GC 562 strain
[13] = Ratio of ED50 of single oral dose to ED50 of single subcutaneous dose against Staphylococcus aureus smith infection in mice
Mus musculus [14] = assay: Tested for oral activity against Staphylococcus aureus smith infection in mice after single subcutaneous dose(SSC); conditions: Mus musculus; read-out: ED50
Mus musculus [15] = assay: Tested for oral activity against Staphylococcus aureus smith infection in mice after single oral dose(SOD); 0.83-1.7
Mus musculus [16] = assay: Tested for oral activity against Staphylococcus aureus smith infection in mice after single subcutaneous dose(SSC); 0.06-0.21
Mus musculus [17] = assay: Tested for oral activity against Staphylococcus aureus smith infection in mice after single subcutaneous dose(SSC); 0.1-0.21
[18] = Enterococcus faecium, read-out: MIC
[19] = Enterococcus faecalis, read-out: MIC

Row | SMILES | MIC [1] [µg/mL] | MIC (Citrobacter freundii) [µg/mL] | MIC (Escherichia coli [2]) [µg/mL] | MIC (Escherichia coli [3]) [µg/mL] | MIC (Escherichia coli [4]) [µg/mL] | MIC (Enterobacter cloacae) [µg/mL] | ED50 (Mus musculus [5]) [mg/kg] | ED50 (Mus musculus [6]) [mg/kg] | ED50 (Mus musculus [7]) [mg/kg] | MIC (Morganella morganii) [µg/mL] | MIC (Pseudomonas aeruginosa [8]) [µg/mL] | MIC (Pseudomonas aeruginosa [9]) [µg/mL] | MIC (Staphylococcus aureus [10]) [µg/mL] | MIC (Staphylococcus aureus [11]) [µg/mL] | MIC [12] [µg/mL] | Ratio [13] | ED50 (Mus musculus [14]) [mg/kg] | MIC (Enterococcus faecium; [18]) [µg/mL] | MIC (Enterococcus faecalis; [19]) [µg/mL] | further results
1 | C[C@@H](O)[C@H]1C(=O)N2C(C(=O)O)=C(S[C@@H]3CCO[C@@H]3CN)[C@H](C)[C@H]12 | 2 (≈ 5.84 µM) | ≤ 0.06 | ≤ 0.06 | ≤ 0.06 | ≤ 0.06 | ≤ 0.06 | 3.8 | 0.34 | 0.88 | 0.5 (≈ 1.46 µM) | 8 (≈ 23.4 µM) | 16 (≈ 46.7 µM) | 1 (≈ 2.92 µM) | ≤ 0.06 | > 128 | 22 | 0.04 | – | – | MIC (Enterococcus faecium): 64 µg/mL (≈ 187 µM); MIC (Enterococcus faecalis): 0.5 µg/mL (≈ 1.46 µM)
2 | C[C@@H](N)C(=O)NC[C@@H]1C[C@@H](SC2=C(C(=O)O)N3C(=O)[C@H]([C@@H](C)O)C3[C@H]2C)CO1 (stereo partly drawn) | 8 (≈ 19.3 µM) | 0.5 (≈ 1.21 µM) | < 0.06 | 0.12 (≈ 0.29 µM) | 0.12 (≈ 0.29 µM) | 0.12 (≈ 0.29 µM) | – | – | – | 1 (≈ 2.42 µM) | 32 (≈ 77.4 µM) | 64 (≈ 155 µM) | 4 (≈ 9.67 µM) | < 0.06 | > 128 | 14 | – | > 128 | 4 (≈ 9.67 µM) | ED50 (Mus musculus [15]): 0.83 mg/kg; ED50 (Mus musculus [16]): 0.06 mg/kg
3 | C[C@@H](N)C(=O)NC[C@@H]1C[C@H](SC2=C(C(=O)O)N3C(=O)[C@H]([C@@H](C)O)C3[C@H]2C)CO1 (stereo partly drawn) | 8 (≈ 19.3 µM) | 1 (≈ 2.42 µM) | < 0.06 | 0.06 (≈ 0.145 µM) | 0.12 (≈ 0.29 µM) | 0.25 (≈ 0.605 µM) | – | – | – | 1 (≈ 2.42 µM) | 32 (≈ 77.4 µM) | 64 (≈ 155 µM) | 8 (≈ 19.3 µM) | < 0.06 | > 128 | 8.3 | – | > 128 | 4 (≈ 9.67 µM) | ED50 (Mus musculus [15]): 0.83 mg/kg; ED50 (Mus musculus [17]): 0.1 mg/kg
4 | CC[C@@H](C)[C@@H](N)C(=O)NC[C@H]1OCC[C@H]1SC1=C(C(=O)O)N2C(=O)[C@H]([C@@H](C)O)C2[C@H]1C (stereo partly drawn) | 64 (≈ 140 µM) | 4 (≈ 8.78 µM) | ≤ 0.06 | 0.25 (≈ 0.549 µM) | ≤ 0.06 | – | 0.58 | 1.1 | 0.21 | 2 (≈ 4.39 µM) | 64 (≈ 140 µM) | 128 (≈ 281 µM) | 32 (≈ 70.2 µM) | 0.25 (≈ 0.549 µM) | > 128 | 0.75 | 0.28 | > 128 | 2 (≈ 4.39 µM) | –
5 | C[C@@H](N)C(=O)NC[C@H]1OCC[C@H]1SC1=C(C(=O)O)N2C(=O)[C@H]([C@@H](C)O)C2[C@H]1C (stereo partly drawn) | 16 (≈ 38.7 µM) | 1 (≈ 2.42 µM) | ≤ 0.06 | ≤ 0.06 | ≤ 0.06 | 0.25 (≈ 0.605 µM) | 0.55 | 0.28 | 0.09 | 1 (≈ 2.42 µM) | 32 (≈ 77.4 µM) | 64 (≈ 155 µM) | 8 (≈ 19.3 µM) | 0.12 (≈ 0.29 µM) | > 128 | 2.2 | 0.04 | > 128 | 4 (≈ 9.67 µM) | –
6 | C[C@H]1C(S[C@@H]2CCO[C@@H]2CNC(=O)CN)=C(C(=O)O)N2C(=O)[C@H]([C@@H](C)O)C12 (stereo partly drawn) | 8 (≈ 20 µM) | 0.5 (≈ 1.25 µM) | < 0.06 | < 0.06 | < 0.06 | < 0.06 | 1.4 | 0.56 | 0.41 | 0.5 (≈ 1.25 µM) | 8 (≈ 20 µM) | 64 (≈ 160 µM) | 8 (≈ 20 µM) | 0.12 (≈ 0.3 µM) | > 128 | 2.7 | 0.15 | > 128 | 2 (≈ 5.01 µM) | –
7 | C[C@H]1C(S[C@@H]2COC[C@@H]2CN)=C(C(=O)O)N2C(=O)[C@H]([C@@H](C)O)C12 (stereo partly drawn) | 16 (≈ 46.7 µM) | 0.5 (≈ 1.46 µM) | 0.12 (≈ 0.35 µM) | 0.12 (≈ 0.35 µM) | 0.12 (≈ 0.35 µM) | 0.12 (≈ 0.35 µM) | – | – | – | 2 (≈ 5.84 µM) | 16 (≈ 46.7 µM) | 32 (≈ 93.5 µM) | 16 (≈ 46.7 µM) | 0.12 (≈ 0.35 µM) | > 128 | – | – | > 128 | 8 (≈ 23.4 µM) | –
